Laboratory results published in publication PMC2226154 (The Journal of General Physiology, 1974).
Where two headings read alike, the source gives them in different places.

Legend:
[1] = biological target: T1, neutral amino acid transport system in rabbit ileum (Oryctolagus cuniculus, UniProt B4XTG9); assay: Inhibition of L-methionine-14C influx across the brush border membrane; conditions: for fold decrease in apparent affinity: compared to the corresponding parent compound
[2] = biological target: T1, neutral amino acid transport system in rabbit ileum; conditions: direct measurement of influx; cited from earlier work
[3] = measured by Church and Hansch, unpublished; cited from earlier work
[4] = biological target: T1, neutral amino acid transport system in rabbit ileum; conditions: Hajjar and Curran, phenylalanine analogs; cited from earlier work

O[C@@H](CS)[C@@H](O)CS (racemic) [Dithiothreitol]
effect on methionine influx ([1]; 30 mM, separate control experiments): minimal effect

C[C@H](N)C(=O)O [Alanine]
Apparent affinity [2]: 14 M⁻¹
log P (octanol/water partition coefficient) [3]: -2.94

C=CC[C@H](N)C(=O)O [Allylglycine]
affinity lower than that of norvaline [1]: approximately 30%

CSCC[C@@H](N)C(=O)O [D-methionine]
fold decrease in apparent affinity [1]: approximately 50 fold

CCSCC[C@H](N)C(=O)O [Ethionine]
observed ratio of KI ([1]; 0.5 mM methionine (reference)): 1.00
observed ratio of KI ([1]; 2 mM methionine relative to 0.5 mM): 0.98
observed ratio of KI ([1]; 3 mM methionine relative to 0.5 mM): 1.08

CCOC(=O)CCC(N)C(=O)O (stereo not drawn) [Glutamic acid 7-ethyl ester]
fold higher affinity than glutamic acid [1]: 10 fold

COC(=O)CC[C@H](N)C(=O)O [Glutamic acid Y-methyl ester]
fold higher affinity than glutamic acid [1]: 10 fold

NCC(=O)O [Glycine]
Apparent affinity [2]: 8 M⁻¹

CC(C)C[C@H](N)C(=O)O [Leucine]
Apparent affinity [2]: 32 M⁻¹

CN[C@@H](Cc1ccccc1)C(=O)O [N-methyl phenylalanine]
Apparent affinity [4]: very low apparent affinity

N[C@@H](Cc1ccccc1)C(=O)O [Phenylalanine]
Apparent affinity [4]: 56 M⁻¹

CCC(O)C(N)C(=O)O (stereo not drawn) [a-Amino-b-hydroxy valeric acid, a-amino-b-hydroxyvaleric acid]
Ki ([1]; read-out: KI observed, Table V, [Na] 35): 5 mM

O=C(O)C(O)Cc1ccccc1 (stereo not drawn) [phenyllactic acid]
Apparent affinity [4]: 0.8 M⁻¹

O=C(O)CCc1ccccc1 [phenylpropionic acid]
Apparent affinity [4]: 1.2 M⁻¹

CC(C)(C)C(N)C(=O)O (stereo not drawn) [tertiary leucine]
fold decrease in apparent affinity [1]: ~10 fold
